# Test system: human peripheral blood cells (lymphocytes)
# Assay: γδT lymphocyte proliferation induction, BrdU labeling after 3 days of culture
# Format: cell-based
# Design: key to cytotoxicity: *: cytotoxicity
# Details: 3 days culture; for % stimulation relative to the control: BrdU
# Description: The γδT lymphocyte proliferation-inducing activity is tested in the following way: human peripheral blood cells are cultured in the presence of an RPMI-type culture medium supplemented with L-glutamine (2 mM), penicillin/streptomycin (50 μg/50 IU/ml) and foetal calf serum (10%). The C-glycoside derivatives 1 and 2 are added at various concentrations (10 to 0.05 mM), along with phytohemagglutin (PHA at […]), a positive control for total lymphocyte proliferation.
SMILES,% stimulation relative to the control (0.05 mM) [%],% stimulation relative to the control (0.1 mM) [%],% stimulation relative to the control (0.5 mM) [%],% stimulation relative to the control (1 mM) [%],cytotoxicity (5 mM),% stimulation relative to the control (5 mM) [%],cytotoxicity (10 mM),% stimulation relative to the control (10 mM) [%]
"CC(=O)C[C@@H]1OC[C@@H](O)[C@H](O)[C@H]1O [Compound 1, 1-(C-β-D-xylopyranosyl)propan-2-one]",108,115,84,131,*,106,*,74
"CC(=O)C[C@@H]1O[C@H](CO)[C@@H](O)[C@H](O)[C@H]1O [Compound 2, 1-(C-β-D-glucopyranosyl)propan-2-one]",64,76,90,123,,227,,224

# Reference: patent publication US20070265210A1, “Administration of C-glycoside compounds for protecting and/or activating gammadeltaT lymphocytes” (L'OREAL, priority 2006, published 2007)
